Results from US20230381142A1, “ANTILEISHMANIAL COMPOUNDS, COMPOSITIONS AND USE THEREOF” (TRUSTEES OF BOSTON UNIVERSITY, priority 2022, published 2023).

Key:
[1] = system: L. major promastigotes (strain LV39); assay: Promastigote assay, CellTiter-Glo (Assay Conditions F); type: cell-based; conditions: Leishmania major; read-out: Extracellular promastigote EC50
Procedure: (§1) Assay Conditions F: Leishmania promastigotes (L. major: strain LV39; L. donovani, strain 1S/Cl2D) were maintained as previously described in PloS Negl Trop Dis (2015) 9(3):e0003588 and Pathogens (2021) 10(5):593) at 28° C. in M199 media supplemented with glutamine, adenosine, folic acid, hemin, HEPES, 10% Fetal Bovine Serum (Sigma-Aldrich, cat. no. F2442) and 1% Penicillin-Streptomycin (Gibco, cat. no. 15140122). For the promastigote assay, we followed the method previously described in PloS Negl Trop Dis (2011) 5(7):e1253. Briefly, promastigotes were incubated with the compounds for 72 h at 27° C., then lysed by adding 50 μL of CellTiter-Glo (Promega) and placed on an orbital shaker for 5 min at room temperature. After lysis, the resulting ATP-bioluminescence was measured using the Analyst HT plate reader (Molecular Devices).

[2] = system: L. donovani promastigotes (strain 1S/Cl2D); assay: as above; type: cell-based; conditions: Leishmania donovani; read-out: Extracellular promastigote EC50
Procedure: as §1

[3] = system: L. donovani intracellular amastigotes in B10R cells; assay: UCSD L. donovani infection assay (Assay Conditions D); type: cell-based; conditions: Leishmania donovani
In short: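 Compounds, either single-point at 10 μM or 10-point 2-fold series (3 technical, 2 biological replicates), were incubated 72 h at 37° C. with B10R host cells co-seeded with day-7 stationary L. donovani promastigotes (20:1). DAPI-stained nuclei imaging yielded intracellular parasite EC50 and host-cell CC50.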

[4] = system: L. major (strain LV39) intracellular amastigotes infecting THP-1 cells; assay: High content intracellular amastigote assay in THP-1 cells (Assay Conditions B); type: cell-based, Leishmania major; conditions: Leishmania major; THP-1 host cells
Procedure: Assay Conditions B: THP-1 cells (human acute monocytic leukemia cell line—ATCC TIB202) were grown in RPMI supplemented with 10% Fetal Bovine Serum (FBS) and 50 μM 2-mercaptoethanol at 37° C. in 5% CO2. THP-1 were seeded in microwell plates at 5×10^5 cells/mL density and treated with 0.1 μM phorbol myristate acetate (PMA, Sigma) at 37° C. for 48 h for differentiation into adherent, non-dividing macrophages. After activation by PMA, cells were washed and incubated with complete RPMI medium containing stationary phase Leishmania promastigotes (L. major: strain LV39; L. donovani, strain 1S/Cl2D) at a 1:15 parasite-cell ratio. Compounds were added and incubated at 37° C. for 72 h. Cells were then washed with phosphate-buffered saline (PBS), fixed for 30 minutes with 4% formaldehyde, rinsed again with PBS, stained for 2 h with 4′,6′-diamidino-2-phenylindole (DAPI 300 nM) and finally washed with PBS. In a collaborative effort to identify new antileishmanial chemotypes with minimal host cell cytotoxicity, compounds from the Boston University Center for Molecular Discovery (BUCMD) screening collection were assessed in a phenotypic, high content primary screen at the University of California's Center for Discovery and Innovation in Parasitic Diseases (CDIPD) for the ability to inhibit growth of L. donovani intracellular amastigotes infecting THP-1 cells. […] Dose-response testing in L. donovani (both intracellular amastigotes and promastigotes) confirmed concentration-dependent growth inhibition of both morphologies of the parasite at low micromolar EC50 values for both compounds (Table 1).

HepG2 cells = assay: HepG2 cytotoxicity; type: cell-based; conditions: Homo sapiens; toxicity against HepG2 cells

Row | IC50 [3] [nM] | EC50 ([3]; average of two biological replicates, read-out: L. donovani EC50 (UCSD assay)) [nM] | Compound | EC50 [1] [nM] | EC50 [2] [nM] | EC50 [4] [nM] | EC50 (HepG2 cells) [nM]
1 | 800 | 820 | COc1ccc(N2C(=O)c3[nH]nc(CC(C)C)c3C2c2ccc(F)cc2)cc1 (racemic) [Compound 1, 4-(4-fluorophenyl)-3-isobutyl-5-(4-methoxyphenyl)-4,5-dihydropyrrolo[3,4-c]pyrazol-6(1H)-one] | 4400 | 2000 | 1300 | 63100
2 | 1100 | – | COc1ccc(N2C(=O)c3[nH]nc(CC(C)C)c3C2c2ccccc2)cc1 (centres unmarked) [Compound 2] | 4200 | 2400 | 1700 | 79400
